# Results: BindingDB's records for doi:10.1021/jm990235p (Va Medical Center, 1999)
# Biological target: aldehyde dehydrogenase (Saccharomyces cerevisiae)
# Assay: In vitro inhibitory activity against yeast Aldehyde dehydrogenase
smiles,measurement,value
CCOC(=O)N(OC(=O)N(CC)CC)S(=O)(=O)c1ccccc1 [ethyl [(diethylamino)carbonyl]oxy(phenylsulfonyl)carbamate],IC50,169 µM
